Experiments:
Type in all cases: in vivo
[1] = test system: sweetpotato whitefly (bemisia tabaci); experiment: Sweetpotato whitefly test on cotton plants under laboratory conditions; conditions: 800 ppm (table footnote), spray on cotton plants with eggs, 21 days, spent pupal cases versus solution-only plants
Experimental: Evaluation of Tests Compounds on Sweetpotato Whitefly (Bemisia tabacia) Under Laboratory Conditions
Four mg of each test compound was dissolved by adding 5 ml of a 90:10 acetone:ethanol solvent mixture to the vial containing the sample compound. […]
Five-week-old cotton plants reared in a greenhouse were stripped of all foliage except for the two uppermost true leaves that were greater than 5 cm in diameter. These plants were then placed into a laboratory colony of whiteflies for three days for oviposition by the colony females. All whiteflies were then removed from the test plants with pressurized air. The spray solution was then applied to the test plants with a hand-held syringe fitted with hollow cone nozzle. One mL spray solution was applied to each leaf top and bottom for a total of 4 mL per plant. Four replications of each test compound utilized a total of 16 mL spray solution. Plants were air dried and then placed in a holding chamber (26° C. and 40% RH for 21 days. Compound efficacy was evaluated by counting, under a dissecting microscope, the number of spent pupal cases per leaf. A spent pupal case represents a whitefly egg that has undergone full development to achieve adult status, thus indicating lack of control.
Percent control based on reduction of spent pupal cases of a test compound compared to solution-only (no test compound sprayed plants is reported in Table 1.

[2] = test system: cotton aphids (aphis gossypii); experiment: Insecticidal test for cotton aphid, foliar spray on infested squash cotyledons; conditions: 50 ppm spray, graded after 3 days, versus untreated check
Experimental: Insecticidal Test for Cotton Aphid (Aphis gossypii)
To prepare spray solutions, 2 mg of each test compound was dissolved into 2 mL of a 90:10 acetone:ethanol solvent. This 2 mL of chemical solution was added to 38 mL of water containing 0.05% Tween 20 surfactant to produce a 50 ppm spray solution.
Squash cotyledons were infested with cotton aphid (all life stages16-20 hours prior to application of spray solution. The solution was sprayed on both sides of each infested squash cotyledon (0.5 mL×2 each side with a sweeping action using a total of 2 mL of spray solution. The plants were allowed to air dry and held for 3 days in a controlled room at 26° C. and 40% RH after which time the test was graded. Grading was by actual count using a dissecting microscope and comparison of test counts to the untreated check. Results are given in Table 1 as percent control based on population reduction versus the untreated.

[3] = test system: twospotted spider mite (tetranychus uriticae); experiment: Two-spotted spider mite test, ovicide method on cotton leaf discs; conditions: leaf disc dip, 6 days, hatched larvae versus untreated discs
Experimental: Insecticidal Test for Two-spotted Spider Mite (Tetranychus urticae)
Ten adult female two-spotted spider mites were placed on eight 2.2 cm leaf discs of cotton leaf, allowed to oviposit over 24 hours, and thereafter removed. The leaf discs were immersed in 100 ppm test solutions for 3 seconds, then allowed to dry with sixteen discs left untreated as a negative control. Discs were placed on an agar substrate and held at 24° C. and 90% relative humidity for 6 days.

Row | Compound | WF: activity at 800 ppm against sweetpotato whitefly (rating of % mortality / percent control) [1] | CA: activity at 50 ppm against cotton aphids (rating of % mortality / percent control) [2] | TSSM: activity at 100 ppm against twospotted spider mite (rating of % mortality / percent control) [3]
1 | Cc1nc(Cl)sc1-c1nc(-c2c(F)cccc2F)nn1C [Compound 39] | G (Inactive) | A (91-100) | A (91-100)
2 | Cn1nc(-c2c(F)cccc2F)nc1-c1cnn(-c2ccc(Cl)cc2)c1C(F)(F)F [Compound 79] | G (Inactive) | A (91-100) | G (Inactive)
3 | Cc1cc(-c2nc(-c3c(F)cccc3Cl)nn2C)nn1C [Compound 72] | G (Inactive) | A (91-100) | C (71-80)
4 | Cn1nc(-c2c(F)cccc2F)nc1-c1snc(-c2ccc(Cl)cc2)c1Br [Compound 11] | G (Inactive) | A (91-100) | A (91-100)
5 | Cn1nc(-c2c(F)cccc2F)nc1-c1csc(-c2cccs2)n1 [Compound 50] | G (Inactive) | A (91-100) | G (Inactive)
6 | Cn1nc(-c2c(F)cccc2F)nc1-c1snc(C#N)c1Br [Compound 4] | G (Inactive) | A (91-100) | G (Inactive)
7 | Cc1nc(Br)sc1-c1nc(-c2c(F)cccc2F)nn1C [Compound 41] | G (Inactive) | A (91-100) | A (91-100)
8 | Cn1nc(-c2c(F)cccc2F)nc1-c1scnc1Cl [Compound 38] | G (Inactive) | A (91-100) | A (91-100)
9 | Cn1nc(-c2c(F)cccc2F)nc1-c1ccc(Br)n1C [Compound 85] | G (Inactive) | B (81-90) | E (51-60)
10 | Cn1nc(-c2c(F)cccc2F)nc1-c1cnn(C)c1[N+](=O)[O-] [Compound 78] | G (Inactive) | A (91-100) | A (91-100)
11 | Cn1nc(-c2c(F)cccc2Cl)nc1-c1snc(-c2ccc(Cl)cc2)c1Br [Compound 12] | G (Inactive) | A (91-100) | A (91-100)
12 | Cn1nc(-c2c(F)cccc2F)nc1-c1snc(-c2ccccc2)c1Br [Compound 7] | E (51-60) | B (81-90) | G (Inactive)
13 | Cn1nc(-c2c(F)cccc2F)nc1-c1snnc1-c1ccccc1 [Compound 58] | G (Inactive) | A (91-100) | C (71-80)
14 | Cn1nc(-c2c(F)cccc2Cl)nc1-c1snc(-c2ccccc2)c1Br [Compound 8] | G (Inactive) | B (81-90) | C (71-80)
15 | Cn1nc(-c2c(F)cccc2F)nc1-c1cc(Br)c(Br)n1C [Compound 86] | G (Inactive) | A (91-100) | G (Inactive)
16 | Cc1cc(-c2nc(-c3c(F)cccc3F)nn2C)nn1C [Compound 71] | G (Inactive) | A (91-100) | G (Inactive)
17 | Cc1cc(-c2nc(-c3c(F)cccc3F)nn2C)n(C)n1 [Compound 62] | E (51-60) | A (91-100) | G (Inactive)
18 | Cc1nc(-c2ccc(C(F)(F)F)cc2)sc1-c1nc(-c2c(F)cccc2F)nn1C [Compound 47] | G (Inactive) | D (61-70) | A (91-100)
19 | Cc1cnsc1-c1nc(-c2c(F)cccc2Cl)nn1C [Compound 3] | G (Inactive) | B (81-90) | A (91-100)
20 | Cn1nc(-c2c(F)cccc2F)nc1-c1cc(C(C)(C)C)nn1Cc1ccccc1 [Compound 70] | E (51-60) | B (81-90) | G (Inactive)

Source: patent US6413997B1, “3-(substituted phenyl)-5-(substituted heterocyclyl)-1,2,4-triazole compounds” (priority 1998, dated 2002)
